The test system of one assay is RPMI-8226 (MM) cells. In words: cells. The format is cell-based. As to the method:
(§1) Cell lines tested included B-lymphoma, multiple myeloma, and leukemia cells.
(§2) Cytotoxicity effects of the free drug linkers and conjugates were measured with a cell proliferation assay. A total of 12500 cells in a volume of 25 μl were seeded in a 384-well flat bottom white polystyrene plate on the day of assay. Free drug-linkers and conjugates were formulated at 2× starting concentration (1000 nM for free drug linkers and 100 nM for ADCs) in RPMI medium and filtered through MultiScreen HTS 96-Well Filter Plates (Millipore). Filter sterilized samples were serial diluted (1:3) under sterile conditions and added into treatment wells. Plates were cultured at 37° C. in a CO2 incubator for 72 hrs. For cell viability measurement, 30 μl of Cell Titer-Glo® reagent (Promega Corp.) was added into each well, and plates processed as per product instructions. Relative luminescence was measured on an ENVISION® plate reader (Perkin-Elmer; Waltham, Mass.). Relative luminescence readings were converted to % viability using untreated cells as controls. Data was fitted with non-linear regression analysis, using log(inhibitor) vs. response, variable slope, 4 parameter fit equation using GraphPad Prism. Data was expressed as % relative cell viability vs. dose of free drug-linker or conjugate in nM.
Each of Conjugates A-F was evaluated for the ability to bind and kill cells expressing CD74. Cell lines tested included B-lymphoma, multiple myeloma, and leukemia cells. Controls included unconjugated anti-CD74 antibody.

The test system of the next assay is OPM-2 (MM) cells. In words: Cell killing assay (cell proliferation, Cell Titer-Glo), OPM-2 (MM). The format is cell-based. As to conditions: 72 hrs, NK = no killing. The method, then:
as §1, §2
(§3) Each of Conjugates A-F was evaluated for the ability to bind and kill cells expressing CD74. […]
(Cellular ATP, detected with luciferase, serves as a proxy for viable cell number.)

For a further assay, the system named is K562 (CML) cells. Nature of the assay: Cell killing assay (cell proliferation, Cell Titer-Glo), K562 (CML). The format is cell-based. To be noted: 72 hrs, NK = no killing. As to the method:
as §1, §2, §3

In another assay the test system is SUP-B15 (ALL) cells. Nature of the assay: cells. The format is cell-based. As to the method: as §1, §2, §1
The subject of the next assay is JVM-13 (CLL) cells. In words: cells. The format is cell-based. As to the method: as §1, §2, §1
The test system of a further assay is ARD (MM) cells. Nature of the assay: cells. The format is cell-based. The method, then:
as §1, §2, §1

The subject of another assay is BDCM (AML) cells. Nature of the assay: cells. The format is cell-based. The method, then:
as §1, §2, §1

A further assay deals with RPMI-6666 (HL) cells. Nature of the assay: cells. The format is cell-based. The method, then: as §1, §2, §1
The subject of a further assay is SU-DHL-6 (NHL) cells. Nature of the assay: cells. The format is cell-based, human. The method, then: as §1, §2, §1
The subject of a further assay is ARP-1 (MM) cells. The format is cell-based, human. As to the method:
as §1, §2, §1

Bounds are passed on as bounds.

Regarding `COc1cc2cc(c1Cl)N(C)C(=O)C[C@H](OC(=O)[C@H](C)N(C)C(=O)CCCC(=O)N(C)CCOCCOCCOCCOCc1cn(C)nn1)[C@]1(C)O[C@H]1[C@H](C)[C@@H]1C[C@@](O)(NC(=O)O1)[C@H](OC)/C=C/C=C(/C)C2` [Conjugate B], the IC50 (in general, the point on the concentration scale where inhibition reaches its midpoint) was 51 nM in the assay on RPMI-8226 (MM) cells (72 h); over 50 nM with OPM-2 (MM) cells; over 50 nM in the assay with K562 (CML) cells; 5.7 nM in the assay with SUP-B15 (ALL) cells (72 h); 2 nM with JVM-13 (CLL) cells (72 h); 31 nM in the assay on ARD (MM) cells (72 h). In addition, the IC50 with BDCM (AML) cells (72 h) was determined as 15 nM; in the assay with RPMI-6666 (HL) cells (72 h), 1.3 nM; with SU-DHL-6 (NHL) cells (72 h), 1.3 nM; in the assay with ARP-1 (MM) cells (72 h), 16 nM. For the same compound, the “Cell Killing Activity Span” value came to 41% in the assay with RPMI-8226 (MM) cells (RPMI-8226 (MM) cells, 72 hrs, Cell Titer-Glo, NK = no killing); 72% in the assay with SUP-B15 (ALL) cells (SUP-B15 (ALL) cells, 72 hrs, Cell Titer-Glo, NK = no killing); 69% in the assay with JVM-13 (CLL) cells (JVM-13 (CLL) cells, 72 hrs, Cell Titer-Glo, NK = no killing); 53% in the assay with ARD (MM) cells (ARD (MM) cells, 72 hrs, Cell Titer-Glo, NK = no killing); 95% in the assay with BDCM (AML) cells (BDCM (AML) cells, 72 hrs, Cell Titer-Glo, NK = no killing); 89% in the assay with RPMI-6666 (HL) cells (RPMI-6666 (HL) cells, 72 hrs, Cell Titer-Glo, NK = no killing). Also, the “Cell Killing Activity Span” value with SU-DHL-6 (NHL) cells (SU-DHL-6 (NHL) cells, 72 hrs, Cell Titer-Glo, NK = no killing) is recorded as 98%; in the assay with ARP-1 (MM) cells (ARP-1 (MM) cells, 72 hrs, Cell Titer-Glo, NK = no killing), 82%.

These data come from patent US11708413B2 (priority 2016, dated 2023).
